Like-named read-outs stand apart in the source and are kept apart here.
Target: T1, IKBKB (IKKβ) (Homo sapiens, UniProt O14920)
T1 construct: purchased Life Technologies (assay performed by the vendor)
T1 sequence (O14920 1-756): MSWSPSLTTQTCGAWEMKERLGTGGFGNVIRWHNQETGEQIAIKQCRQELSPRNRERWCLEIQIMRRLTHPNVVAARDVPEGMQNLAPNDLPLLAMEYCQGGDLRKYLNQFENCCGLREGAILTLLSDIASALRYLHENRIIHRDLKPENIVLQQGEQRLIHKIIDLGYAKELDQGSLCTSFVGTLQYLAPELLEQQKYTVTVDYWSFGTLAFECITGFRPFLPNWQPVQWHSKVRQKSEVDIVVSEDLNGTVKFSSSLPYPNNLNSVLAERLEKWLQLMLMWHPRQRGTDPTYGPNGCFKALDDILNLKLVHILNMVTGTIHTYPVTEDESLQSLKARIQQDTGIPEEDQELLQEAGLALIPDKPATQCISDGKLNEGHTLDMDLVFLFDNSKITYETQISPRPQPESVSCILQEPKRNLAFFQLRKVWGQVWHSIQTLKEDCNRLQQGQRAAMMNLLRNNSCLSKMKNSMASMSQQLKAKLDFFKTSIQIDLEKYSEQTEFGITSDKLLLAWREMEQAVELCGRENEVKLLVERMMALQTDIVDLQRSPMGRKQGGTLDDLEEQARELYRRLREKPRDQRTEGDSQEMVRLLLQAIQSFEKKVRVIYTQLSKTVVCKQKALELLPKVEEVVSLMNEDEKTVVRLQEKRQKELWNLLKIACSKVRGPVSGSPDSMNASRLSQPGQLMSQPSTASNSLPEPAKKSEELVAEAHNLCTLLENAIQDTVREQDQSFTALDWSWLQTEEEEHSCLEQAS
Experiment: Z'-LYTE IKKβ assay (Life Technologies)
Type: biochemical
Protocol: IKKα and IKKβ inhibitory activity was determined using three different assays: a dissociation enhanced ligand fluorescent immunoassay (DELFIA) based on the protocol of HTScan™ IKKβ Kinase Assay (Cell Signaling Technology, USA); an Adapta IKKα assay (performed by Life Technologies); a Z′-LYTE™ IKKβ assay (performed by Life Technologies).
The reaction was performed in low volume NBS, black 384-well plates (Corning model 4514).
The test compounds were screened in 1% DMSO (final) in the well. For 10 point titrations, 3-fold serial dilutions were conducted from the starting concentration of 50 mM.
The 2× IKBKB (IKKβ)/Ser/Thr 05 mixture was prepared in 50 mM HEPES pH 7.5, 0.01% BRIJ-35, 10 mM MgCl2, 1 mM EGTA. The final 10 μL Kinase Reaction consisted of 0.62-4 ng IKBKB (IKKβ) and 2 μM Ser/Thr 05 in 50 mM HEPES pH 7.5, 0.01% BRIJ-35, 10 mM MgCl2, 1 mM EGTA.
5 μL of 2× Kinase reaction was incubated with 2.5 μL of ATP solution diluted to a 4× working concentration in Kinase Buffer (50 mM HEPES pH 7.5, 0.01% BRIJ-35, 10 mM MgCl2, 1 mM EGTA) in the presence of […] of 100× test compound in 100% DMSO and 2.4 μL of Kinase buffer.
The resulting kinase reaction was allowed to incubate for 1 hour at room temperature before 5 μL of a 1:64 dilution of Development Reagent B was added and the resulting Development Reaction was incubated for another hour at room temperature. Then the plate was read on a fluorescence plate reader and the data analysed.
A ratiometric method, which calculated the Emission Ratio of donor emission (i.e. coumarin) to acceptor emission (i.e. fluorescein) after excitation of the donor fluorophore at 400 nm, was used to quantitate reaction progress, as shown in the equation below.

Structure (SMILES)	IC50 (Life Technologies assay)	IC50
CC(C)(C)C#Cc1c(-c2ccc3[nH]nc(N)c3c2)ccnc1N [Example 72, 5-(2-Amino-3-(3,3-dimethylbut-1-yn-1-yl)pyridine-4-yl)-1H-indazol-3-amine]	65 nM	
Nc1nccc(-c2ccc3[nH]nc(N)c3c2)c1C#CC1CCCC1 [Example 73, 5-(2-Amino-3-(cyclopentylethynyl)pyridine-4-yl)-1H-indazol-3-amine]	206 nM	
Nc1nccc(-c2ccc3[nH]nc(N)c3c2)c1C#CC1CCCCC1 [Example 74, 5-(2-Amino-3-(cyclohexylethynyl)pyridine-4-yl)-1H-indazol-3-amine]	342 nM	
Nc1nccc(-c2ccc3[nH]nc(N)c3c2)c1C#Cc1ccccc1 [Example 75, 5-(2-Amino-3-(phenylethynyl)pyridine-4-yl)-1H-indazol-3-amine]	101 nM	
Nc1nccc(-c2ccc3[nH]nc(N)c3c2)c1C#CCO [Example 83, 3-(2-Amino-4-(3-amino-1H-indazol-5-yl)pyridine-3-yl)prop-2-yn-1-ol]	36 nM	
Nc1nccc(-c2ccc3[nH]nc(N)c3c2)c1C#CCCO [Example 84, 4-(2-Amino-4-(3-amino-1H-indazol-5-yl)pyridine-3-yl)but-3-yn-1-ol]	53 nM	
Nc1nccc(-c2ccc3[nH]nc(N)c3c2)c1C#CCCCO [Example 85, 5-(2-Amino-4-(3-amino-1H-indazol-5-yl)pyridine-3-yl)pent-4-yn-1-ol]	25 nM	
CC(C)(O)C#Cc1c(-c2ccc3[nH]nc(N)c3c2)ccnc1N [Example 87, 4-(2-Amino-4-(3-amino-1H-indazol-5-yl)pyridine-3-yl)-2-methylbut-3-yn-2-ol]	36 nM	
CC(C)(C)OCC#Cc1c(-c2ccc3[nH]nc(N)c3c2)ccnc1N [Example 88, 5-(2-Amino-3-(3-(tert-butoxy)prop-1-yn-1-yl)pyridine-4-yl)-1H-indazol-3-amine]	442 nM	
Nc1nccc(-c2ccc3[nH]nc(N)c3c2)c1C#CC1(O)CCCCC1 [Example 90, 1-((2-Amino-4-(3-amino-1H-indazol-5-yl)pyridine-3-yl)ethynyl)cyclohexan-1-ol]	205 nM	
Nc1nccc(-c2ccc3[nH]nc(N)c3c2)c1C#CC1(O)CCCCCC1 [Example 91, 1-((2-Amino-4-(3-amino-1H-indazol-5-yl)pyridine-3-yl)ethynyl)cycloheptan-1-ol]	505 nM	
CC(C)(N)C#Cc1c(-c2ccc3[nH]nc(N)c3c2)ccnc1N [Example 92, 5-(2-Amino-3-(3-amino-3-methylbut-1-yn-1-yl)pyridin-4-yl)-1H-indazol-3-amine]	87 nM	
Nc1nccc(-c2ccc3[nH]nc(N)c3c2)c1C#CCCN1CCCCC1 [Example 93, 5-(2-Amino-3-(4-(piperidin-1-yl)but-1-yn-1-yl)pyridin-4-yl)-1H-indazol-3-amine]	254 nM	
Nc1nccc(-c2ccc3[nH]nc(N)c3c2)c1C#CCCCN1CCCCC1 [Example 95, 5-(2-Amino-3-(5-(piperidin-1-yl)pent-1-yn-1-yl)pyridin-4-yl)-1H-indazol-3-amine]	545 nM	
Nc1nccc(-c2ccc3[nH]nc(N)c3c2)c1C#CCCCN1CCOCC1 [Example 96, 5-(2-Amino-3-(5-morpholinopent-1-yn-1-yl)pyridin-4-yl)-1H-indazol-3-amine]	705 nM	
Nc1nccc(-c2ccc3[nH]nc(N)c3c2)c1C#CCCC(=O)N1CCOCC1 [Example 99, 5-(2-Amino-4-(3-amino-1H-indazol-5-yl)pyridine-3-yl)-1-morpholinopent-4-yn-1-one]	264 nM	
Nc1cc(-c2cc(-c3ccccc3)c3[nH]nc(N)c3c2)ccn1 [Example 104, 5-(2-Aminopyridin-4-yl)-7-phenyl-1H-indazol-3-amine]	162 nM	
Nc1cc(-c2cc(-c3ccoc3)c3[nH]nc(N)c3c2)ccn1 [Example 129, 5-(2-Aminopyridin-4-yl)-7-(furan-3-yl)-1H-indazol-3-amine]	135 nM	

Structure (SMILES)	IC50 (Life Technologies assay)	IC50
CC(C)(C)C#Cc1cc(-c2ccnc(N)c2)cc2c(N)n[nH]c12 [Example 137, 5-(2-Aminopyridin-4-yl)-7-(3,3-dimethylbut-1-yn-1-yl)-1H-indazol-3-amine]	2300 nM	
CC(C)(O)C#Cc1cc(-c2ccnc(N)c2)cc2c(N)n[nH]c12 [Example 140, 4-(3-Amino-5-(2-aminopyridin-4-yl)-1H-indazol-7-yl)-2-methylbut-3-yn-2-ol]	3090 nM	
C#Cc1cc(-c2ccnc3[nH]ccc23)cc2c(N)n[nH]c12 [Example 200, 7-Ethynyl-5-(1H-pyrrolo[2,3-b]pyridin-4-yl)-1H-indazol-3-amine]		158 nM
CC(C)(C)C#Cc1cc(-c2ccnc3[nH]ccc23)cc2c(N)n[nH]c12 [Example 201, 7-(3,3-Dimethylbut-1-yn-1-yl)-5-(1H-pyrrolo[2,3-b]pyridin-4-yl)-1H-indazol-3-amine]		1200 nM
Nc1n[nH]c2c(C#CC3CC3)cc(-c3ccnc4[nH]ccc34)cc12 [Example 202, 7-(Cyclopropylethynyl)-5-(1H-pyrrolo[2,3-b]pyridin-4-yl)-1H-indazol-3-amine]		470 nM
Nc1n[nH]c2c(C#CC3CCCC3)cc(-c3ccnc4[nH]ccc34)cc12 [Example 203, 7-(Cyclopentylethynyl)-5-(1H-pyrrolo[2,3-b]pyridin-4-yl)-1H-indazol-3-amine]		1530 nM
Nc1n[nH]c2c(C#CC3CCCCC3)cc(-c3ccnc4[nH]ccc34)cc12 [Example 204, 7-(Cyclohexylethynyl)-5-(1H-pyrrolo[2,3-b]pyridin-4-yl)-1H-indazol-3-amine]		13500 nM
CC(C)(O)C#Cc1cc(-c2ccnc3[nH]ccc23)cc2c(N)n[nH]c12 [Example 206, 4-(3-Amino-5-(1H-pyrrolo[2,3-b]pyridin-4-yl)-1H-indazol-7-yl)-2-methylbut-3-yn-2-ol]		294 nM
Nc1n[nH]c2c(C#CCCCN3CCOCC3)cc(-c3ccnc4[nH]ccc34)cc12 [Example 210, 7-(5-Morpholinopent-1-yn-1-yl)-5-(1H-pyrrolo[2,3-b]pyridin-4-yl)-1H-indazol-3-amine]		1030 nM
Nc1n[nH]c2c(C#CCCCN3CCCCC3)cc(-c3ccnc4[nH]ccc34)cc12 [Example 212, 7-(5-(Piperidin-1-yl)pent-1-yn-1-yl)-5-(1H-pyrrolo[2,3-b]pyridin-4-yl)-1H-indazol-3-amine]		1140 nM
Nc1n[nH]c2ccc(-c3ccnc4[nH]c(C5CC5)cc34)cc12 [Example 218, 5-(2-Cyclopropyl-1H-pyrrolo[2,3-b]pyridin-4-yl)-1H-indazol-3-amine]		17 nM
Nc1n[nH]c2ccc(-c3ccnc4[nH]c(C5CCCCC5)cc34)cc12 [Example 219, 5-(2-Cyclohexyl-1H-pyrrolo[2,3-b]pyridin-4-yl)-1H-indazol-3-amine]		280 nM
CC(C)(C)Cc1cc2c(-c3ccc4[nH]nc(N)c4c3)ccnc2[nH]1 [Example 220, 5-(2-Neopentyl-1H-pyrrolo[2,3-b]pyridin-4-yl)-1H-indazol-3-amine]		483 nM
Nc1n[nH]c2ccc(-c3ccnc4[nH]c(CC5CCCCC5)cc34)cc12 [Example 221, 5-(2-(Cyclohexylmethyl)-1H-pyrrolo[2,3-b]pyridin-4-yl)-1H-indazol-3-amine]		655 nM
Nc1n[nH]c2ccc(-c3ccnc4[nH]c(CCC5CCCCC5)cc34)cc12 [Example 222, 5-(2-(2-Cyclohexylethyl)-1H-pyrrolo[2,3-b]pyridin-4-yl)-1H-indazol-3-amine]		268 nM
Nc1n[nH]c2ccc(-c3ccnc4[nH]c(CO)cc34)cc12 [Example 224]		28 nM
CC(C)(C)OCc1cc2c(-c3ccc4[nH]nc(N)c4c3)ccnc2[nH]1 [Example 227, 5-(2-(tert-Butoxymethyl)-1H-pyrrolo[2,3-b]pyridin-4-yl)-1H-indazol-3-amine]		388 nM

— US20250304576A1 (Cancer Research Technology Limited, priority 2022, published 2025)
